PubChem BioAssay AID248 (DTP/NCI, 2004)
“And” between values parts separate entries of the source, which are not always exact repeats. Equal entries are not always repeated. Toxic doses and inconclusive results are not listed.

Test system: L1210 leukemia ip in BDF1 mice, survival T/C
Assay: NCI In Vivo Anticancer Drug Screen. Data for tumor model L1210 Leukemia (intraperitoneal) in B6D2F1 (BDF1) mice
Conditions: higher = longer survival
Summary of the method: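 Transplanted-tumor mice were given test agent; controls received vehicle only. Survival readings from the two groups were divided (treated over control).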

[1] = endpoint: mean survival time, dose: 100.0 mg/kg/injection, schedule: Q01DX009 (ip), vehicle: saline

CCCCCCCCCCCCCCCC(=O)OCC1OC(n2ccc(N)nc2=O)C(O)C1O (stereo unspecified)
T/C (endpoint: mean survival time, dose: 5.0 mg/kg/injection, schedule: Q01DX005 (ip), vehicle: other): 150 % of control
T/C (endpoint: mean survival time, dose: 6.0 mg/kg/injection, schedule: Q01DX009 (ip), vehicle: saline with Tween-80): 200 % of control
T/C (endpoint: mean survival time, dose: 8.8 mg/kg/injection, schedule: Q01DX009 (ip), vehicle: saline with Tween-80): 210 % of control
T/C (endpoint: mean survival time, dose: 10.0 mg/kg/injection, schedule: Q01DX005 (ip), vehicle: other): 182 % of control and 183 % of control and 198 % of control
T/C (endpoint: mean survival time, dose: 10.0 mg/kg/injection, schedule: Q06HX008 (ip), vehicle: other): 236 % of control
T/C (endpoint: mean survival time, dose: 12.0 mg/kg/injection, schedule: Q01DX009 (ip), vehicle: saline with Tween-80): 242 % of control
T/C (endpoint: mean survival time, dose: 12.5 mg/kg/injection, schedule: Q01DX001 (ip), vehicle: saline): 153 % of control
T/C (endpoint: mean survival time, dose: 13.0 mg/kg/injection, schedule: Q01DX009 (ip), vehicle: saline with Tween-80): 244 % of control (2×) and 260 % of control
T/C (endpoint: mean survival time, dose: 15.0 mg/kg/injection, schedule: Q01DX005 (ip), vehicle: other): 210 % of control and 231 % of control and 237 % of control
T/C (endpoint: mean survival time, dose: 15.0 mg/kg/injection, schedule: Q01DX008 (ip), vehicle: other): 226 % of control
T/C (endpoint: mean survival time, dose: 15.0 mg/kg/injection, schedule: Q12HX008 (ip), vehicle: other): 292 % of control
T/C (endpoint: mean survival time, dose: 16.0 mg/kg/injection, schedule: Q06HX008 (ip), vehicle: other): 267 % of control
T/C (endpoint: mean survival time, dose: 20.0 mg/kg/injection, schedule: Q01DX005 (ip), vehicle: other): 220 % of control and 224 % of control and 245 % of control
T/C (endpoint: mean survival time, dose: 20.0 mg/kg/injection, schedule: Q01DX008 (ip), vehicle: other): 264 % of control
T/C (endpoint: mean survival time, dose: 24.0 mg/kg/injection, schedule: Q01DX009 (oral), vehicle: saline with Tween-80): 119 % of control
T/C (endpoint: mean survival time, dose: 25.0 mg/kg/injection, schedule: Q01DX001 (ip), vehicle: other): 153 % of control and 154 % of control and 174 % of control
T/C (endpoint: mean survival time, dose: 25.0 mg/kg/injection, schedule: Q01DX001 (ip), vehicle: saline with Tween-80): 196 % of control
T/C (endpoint: mean survival time, dose: 25.0 mg/kg/injection, schedule: Q01DX001 (ip), vehicle: saline): 165 % of control
T/C (endpoint: mean survival time, dose: 25.0 mg/kg/injection, schedule: Q01DX005 (ip), vehicle: other): 243 % of control and 258 % of control and 273 % of control
T/C (endpoint: mean survival time, dose: 25.0 mg/kg/injection, schedule: Q01DX008 (ip), vehicle: other): 267 % of control
T/C (endpoint: mean survival time, dose: 25.0 mg/kg/injection, schedule: Q02DX008 (ip), vehicle: other): 270 % of control
T/C (endpoint: mean survival time, dose: 25.0 mg/kg/injection, schedule: Q04DX008 (ip), vehicle: other): 245 % of control and 252 % of control
T/C (endpoint: mean survival time, dose: 25.0 mg/kg/injection, schedule: Q06DX008 (ip), vehicle: other): 165 % of control and 187 % of control
T/C (endpoint: mean survival time, dose: 25.0 mg/kg/injection, schedule: Q08DX008 (ip), vehicle: other): 178 % of control
T/C (endpoint: mean survival time, dose: 27.0 mg/kg/injection, schedule: Q02DX005 (ip), vehicle: saline with Tween-80): 255 % of control
T/C (endpoint: mean survival time, dose: 30.0 mg/kg/injection, schedule: Q01DX009 (ip), vehicle: saline with Tween-80): 270 % of control
T/C (endpoint: mean survival time, dose: 30.0 mg/kg/injection, schedule: Q03HX008 (ip), vehicle: other): 192 % of control
T/C (endpoint: mean survival time, dose: 32.0 mg/kg/injection, schedule: Q04DX003 (ip), vehicle: saline with Tween-80): 198 % of control
T/C (endpoint: mean survival time, dose: 35.0 mg/kg/injection, schedule: Q01DX005 (ip), vehicle: other): 254 % of control and 255 % of control
T/C (endpoint: mean survival time, dose: 36.0 mg/kg/injection, schedule: Q01DX009 (oral), vehicle: saline with Tween-80): 113 % of control
T/C (endpoint: mean survival time, dose: 40.0 mg/kg/injection, schedule: Q03HX008 (ip), vehicle: other): 151 % of control and 167 % of control
T/C (endpoint: mean survival time, dose: 49.0 mg/kg/injection, schedule: Q04DX003 (ip), vehicle: saline with Tween-80): 271 % of control
T/C (endpoint: mean survival time, dose: 50.0 mg/kg/injection, schedule: Q01DX001 (ip), vehicle: other): 173 % of control and 187 % of control and 211 % of control
T/C (endpoint: mean survival time, dose: 50.0 mg/kg/injection, schedule: Q01DX001 (ip), vehicle: saline with Tween-80): 165 % of control
T/C (endpoint: mean survival time, dose: 50.0 mg/kg/injection, schedule: Q01DX001 (ip), vehicle: saline): 186 % of control and 207 % of control
T/C (endpoint: mean survival time, dose: 50.0 mg/kg/injection, schedule: Q01DX009 (ip), vehicle: saline): 115 % of control
T/C (endpoint: mean survival time, dose: 50.0 mg/kg/injection, schedule: Q04DX008 (ip), vehicle: other): 216 % of control
T/C (endpoint: mean survival time, dose: 50.0 mg/kg/injection, schedule: Q06DX008 (ip), vehicle: other): 245 % of control and 283 % of control
T/C (endpoint: mean survival time, dose: 50.0 mg/kg/injection, schedule: Q08DX008 (ip), vehicle: other): 283 % of control and 293 % of control
T/C (endpoint: mean survival time, dose: 60.0 mg/kg/injection, schedule: Q02DX005 (ip), vehicle: saline with Tween-80): 182 % of control
T/C (endpoint: mean survival time, dose: 64.0 mg/kg/injection, schedule: Q04DX003 (oral), vehicle: saline with Tween-80): 101 % of control
T/C (endpoint: mean survival time, dose: 67.0 mg/kg/injection, schedule: Q01DX001 (ip), vehicle: saline with Tween-80): 162 % of control and 220 % of control
T/C (endpoint: mean survival time, dose: 70.0 mg/kg/injection, schedule: Q01DX001 (ip), vehicle: saline with Tween-80): 239 % of control
T/C (endpoint: mean survival time, dose: 75.0 mg/kg/injection, schedule: Q02DX004 (ip), vehicle: other): 244 % of control
T/C (endpoint: mean survival time, dose: 90.0 mg/kg/injection, schedule: Q02DX004 (ip), vehicle: other): 283 % of control
T/C (endpoint: mean survival time, dose: 98.0 mg/kg/injection, schedule: Q04DX003 (oral), vehicle: saline with Tween-80): 106 % of control
T/C (endpoint: mean survival time, dose: 100.0 mg/kg/injection, schedule: Q01DX001 (ip), vehicle: other): 220 % of control and 253 % of control and 281 % of control
T/C (endpoint: mean survival time, dose: 100.0 mg/kg/injection, schedule: Q01DX001 (ip), vehicle: saline): 276 % of control and 293 % of control
T/C [1]: 96 % of control
T/C (endpoint: mean survival time, dose: 100.0 mg/kg/injection, schedule: Q02DX008 (ip), vehicle: other): 194 % of control
T/C (endpoint: mean survival time, dose: 100.0 mg/kg/injection, schedule: Q04DX008 (ip), vehicle: other): 286 % of control
T/C (endpoint: mean survival time, dose: 120.0 mg/kg/injection, schedule: Q03DX004 (ip), vehicle: other): 235 % of control
T/C (endpoint: mean survival time, dose: 140.0 mg/kg/injection, schedule: Q01DX001 (oral), vehicle: saline with Tween-80): 98 % of control
T/C (endpoint: mean survival time, dose: 146.0 mg/kg/injection, schedule: Q04DX003 (oral), vehicle: saline with Tween-80): 106 % of control
T/C (endpoint: mean survival time, dose: 150.0 mg/kg/injection, schedule: Q04DX008 (ip), vehicle: other): 233 % of control and 235 % of control
T/C (endpoint: mean survival time, dose: 150.0 mg/kg/injection, schedule: Q08DX008 (ip), vehicle: other): 291 % of control
T/C (endpoint: mean survival time, dose: 200.0 mg/kg/injection, schedule: Q01DX001 (ip), vehicle: saline): 283 % of control
T/C (endpoint: mean survival time, dose: 214.0 mg/kg/injection, schedule: Q01DX001 (oral), vehicle: saline with Tween-80): 97 % of control
T/C (endpoint: mean survival time, dose: 220.0 mg/kg/injection, schedule: Q04DX003 (oral), vehicle: saline with Tween-80): 104 % of control
T/C (endpoint: mean survival time, dose: 225.0 mg/kg/injection, schedule: Q01DX001 (ip), vehicle: saline with Tween-80): 249 % of control
T/C (endpoint: mean survival time, dose: 250.0 mg/kg/injection, schedule: Q01DX001 (ip), vehicle: other): 175 % of control and 210 % of control and 234 % of control
T/C (endpoint: mean survival time, dose: 320.0 mg/kg/injection, schedule: Q01DX001 (oral), vehicle: saline with Tween-80): 108 % of control
T/C (endpoint: mean survival time, dose: 337.0 mg/kg/injection, schedule: Q01DX001 (ip), vehicle: saline with Tween-80): 172 % of control
T/C (endpoint: mean survival time, dose: 400.0 mg/kg/injection, schedule: Q01DX001 (ip), vehicle: saline): 156 % of control
T/C (endpoint: mean survival time, dose: 480.0 mg/kg/injection, schedule: Q01DX001 (oral), vehicle: saline with Tween-80): 101 % of control
T/C (endpoint: median survival time, dose: 75.0 mg/kg/injection, schedule: Q01DX001 (ip), vehicle: saline): 288 % of control
T/C (endpoint: median survival time, dose: 150.0 mg/kg/injection, schedule: Q01DX001 (ip), vehicle: saline): 288 % of control
T/C (endpoint: median survival time, dose: 300.0 mg/kg/injection, schedule: Q01DX001 (ip), vehicle: none): 98 % of control
T/C (endpoint: median survival time, dose: 300.0 mg/kg/injection, schedule: Q01DX001 (ip), vehicle: saline): 94 % of control

Nc1n[nH]c(N)n1.[Co]
T/C (endpoint: mean survival time, dose: 50.0 mg/kg/injection, schedule: Q04DX003 (ip), vehicle: saline): 103 % of control
T/C [1]: 100 % of control
T/C (endpoint: mean survival time, dose: 100.0 mg/kg/injection, schedule: Q04DX003 (ip), vehicle: saline): 100 % of control
T/C (endpoint: mean survival time, dose: 200.0 mg/kg/injection, schedule: Q01DX009 (ip), vehicle: saline): 94 % of control
T/C (endpoint: mean survival time, dose: 200.0 mg/kg/injection, schedule: Q04DX003 (ip), vehicle: saline): 108 % of control
T/C (endpoint: mean survival time, dose: 400.0 mg/kg/injection, schedule: Q01DX009 (ip), vehicle: saline): 107 % of control
T/C (endpoint: mean survival time, dose: 400.0 mg/kg/injection, schedule: Q04DX003 (ip), vehicle: saline): 105 % of control

O=[N+]([O-])c1ccc(C(O)Nc2nccs2)o1 (stereo unspecified)
T/C (endpoint: mean survival time, dose: 25.0 mg/kg/injection, schedule: Q01DX009 (ip), vehicle: saline with Tween-80): 96 % of control
T/C (endpoint: mean survival time, dose: 50.0 mg/kg/injection, schedule: Q01DX009 (ip), vehicle: saline with Tween-80): 117 % of control

CSc1ccc(NC(=O)/C=C/c2ccccc2)cc1
T/C (endpoint: mean survival time, dose: 100.0 mg/kg/injection, schedule: Q01DX009 (ip), vehicle: Klucel (hydroxypropylcellulose) (HPC)): 106 % of control
T/C (endpoint: mean survival time, dose: 200.0 mg/kg/injection, schedule: Q01DX009 (ip), vehicle: Klucel (hydroxypropylcellulose) (HPC)): 112 % of control
T/C (endpoint: mean survival time, dose: 400.0 mg/kg/injection, schedule: Q01DX009 (ip), vehicle: Klucel (hydroxypropylcellulose) (HPC)): 102 % of control
